≈ marks a conversion by molar mass, not a printed value.
What was measured:
[1] = Aqueous solubility (Eurofins Panlabs, HPLC-UV/Vis); format: physicochemical; conditions: aqueous buffer, kinetic from dmso stock; PBS, pH 7.4, 24 h, room temperature (Table 1)
Method: In brief, each compound was tested at a concentration of 200 μM in PBS, pH 7.4, and room temperature. […] The area of the principal peak in a calibration standard for each compound (200 μM) in organic solvent (60/40 v/v% methanol: water) was compared to the area of the corresponding peak in the PBS sample [42]. Compounds 16–21 underwent solubility testing at Analiza (Cleveland, OH, USA), a contract research organization. Five hundred microliters of PBS, pH 7.4 was added to each amount of compound provided. The samples were vortexed briefly and then placed on a rotary shaker at 200 RPM for 24 h at ambient temperature. Thereafter, the samples were vacuum filtered through a 0.45-micron membrane, and the filtrates were injected into a nitrogen detector for quantification. The nitrogen detector was calibrated using standards, and the filtrates were quantitated based on the calibration curve.

661W cells = assay: Cell viability of 661W cells (RealTime-Glo MT); format: cell-based; conditions: for cell viability: in presence of FasL, 48 h, versus vehicle
Method: (§1) To be confident the pyridazinoindolone core could be utilized in future medicinal chemistry efforts, its photoreceptor neuroprotective effect was assessed. […] Fas signaling has a critical role in caspase activation and photoreceptor apoptosis after experimental retinal detachment. 661W cells die via caspase-mediated mechanisms, and the Fas-ligand (FasL) treatment of these cells leads to the activation of caspases and subsequent death, analogous to the in vivo experimental retinal detachment model. Furthermore, similar to photoreceptors, 661W cells express PKM2 (Figure 4a), and these cells have been used to garner information on the role of metabolism in photoreceptor degeneration. As such, this is a suitable in vitro model of photoreceptor stress that can be utilized to assess the consequences of reprogramming metabolism by pharmacologically activating PKM2 [9]. 661W cells were treated with FasL and either compound 2 or vehicle (DMSO).
A luminescent assay kit (RealTime-Glo MT Cell Viability Assay, Promega, Madison, WI, USA, Cat No. G9711) was utilized to assess cell viability. As above, 661W cells were seeded in 96-well plates (Nunc, Rochester, NY, USA) at 2500 cells/well 1 day before treatment. The 661w cells were also pre-treated with compound 2 or DMSO for 2 h before adding 500 ng/mL FasL and 250 ng/mL HA. Viability was measured 48 h after the addition of these latter reagents. As with the caspase assays, luminescence was monitored via a plate reader luminometer (BMG Labtech, Inc., Cary, NC, USA).

[2] = system: caspase 8 activation in 661W cells; assay: Caspase 8 activity assay in 661W cells (Caspase-Glo 8); format: cell-based
Method: as §1
(§2) Caspase 8 and caspase 3/7 activity was measured using luminescent assay kits (Caspase-Glo 8 and 3/7 Assay Systems, Promega, Madison, WI, USA, Cat Nos. G8200 and G8090, respectively). […] As previously published, caspase activity was measured 8 h after treatment by incubating cells with substrate for 1 h as per the manufacturer’s instructions. A plate reader luminometer (BMG Labtech, Inc., Cary, NC, USA) assessed luminescence.

[3] = molecular target: T1, pyruvate kinase (PK) activity in rat retina (Rattus norvegicus, UniProt P11980); assay: PK activity in rat retina after intravitreal injection; format: in vivo; conditions: increasing concentrations, intravitreal injection in rats, retina 4 h
T1 construct: the retina from each rat eye was dissected from the RPE-choroid, homogenized, and lysed; from tissue; host or cells: retina of adult Brown-Norway rats
T1 sequence (P11980 1-531 isoform P11980-2): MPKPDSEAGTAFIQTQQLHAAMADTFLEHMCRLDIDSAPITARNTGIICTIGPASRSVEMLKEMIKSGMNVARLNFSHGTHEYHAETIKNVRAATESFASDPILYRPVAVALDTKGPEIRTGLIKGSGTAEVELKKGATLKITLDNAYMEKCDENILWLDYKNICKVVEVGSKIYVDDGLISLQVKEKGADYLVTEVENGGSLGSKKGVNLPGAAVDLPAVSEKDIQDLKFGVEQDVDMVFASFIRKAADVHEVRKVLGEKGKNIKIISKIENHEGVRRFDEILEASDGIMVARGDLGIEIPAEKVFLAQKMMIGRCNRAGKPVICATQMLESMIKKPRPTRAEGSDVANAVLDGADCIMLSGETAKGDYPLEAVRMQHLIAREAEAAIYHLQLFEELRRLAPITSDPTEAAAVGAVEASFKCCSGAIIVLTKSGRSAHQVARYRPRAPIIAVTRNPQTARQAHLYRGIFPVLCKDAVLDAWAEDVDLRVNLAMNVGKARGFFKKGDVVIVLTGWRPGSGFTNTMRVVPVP
Method: The intravitreal injection of medications has revolutionized how numerous retinal diseases are treated and are ever-increasing in ophthalmic clinical practice. Therefore, to assess the ability of these small molecules to activate PK in vivo in the rat retina, we utilized this well-accepted drug delivery method. Two microliters of each respective compound at 850 μM or DMSO were intravitreally injected into rat eyes. The vitreous volume of the rat eye was assumed to be 15 μL, giving a final intravitreal concentration of approximately 100 μM for each compound after injection. Retinas were harvested four hours after injection, lysed, and assayed for PK activity as previously described. The eyes treated with DMSO served as the control upon which PK activation was based.
Two microliters of each respective compound at 8.5 μM (final vitreous concentration of 1 μM) or DMSO was intravitreally injected into rat eyes, and the PK activity was assessed four hours later.
Animals. Intravitreal injections of various small-molecule PKM2 activators or vehicle (DMSO) were performed in Brown-Norway adult rats. The rats were anesthetized with ketamine (90 mg/mL) and xylazine (10 mg/mL) and their pupils dilated with topical phenylephrine (2.5%) and tropicamide (1%) as described previously. A sclerotomy was created with a 25-gauge microvitreoretinal blade (Walcott Rx Products, Ocean View, NJ, USA) just posterior to the limbus. A blunt 35-gauge cannula was inserted through this sclerotomy into the vitreous cavity to deliver 2 μL of different concentrations of small-molecule activator or DMSO. This injection volume produces minimal reflux with adequate reproducibility. Fifteen microliters of vitreous volume was assumed in rats to calculate the intravitreal concentrations of the compound after injection. As we have previously described, left eyes were treated with small-molecular activator, while right eyes were treated with DMSO, which served as the control upon which pyruvate kinase activation was based. Four hours later, the retina from each rat eye was dissected from the RPE-choroid, homogenized, and lysed in RIPA Lysis and Extraction Buffer with protease inhibitors. The pyruvate kinase (PK) activity assay, as described above, was performed using 4 to 8 microliters of rat retinal lysate, similar to what we and others have previously described. Analogous to the cell culture assays, the total protein of the lysate was used to normalize pyruvate kinase activity.

[4] = system: caspase 3 and 7 activation in 661W cells; assay: Caspase 3/7 activity assay in 661W cells (Caspase-Glo 3/7); format: cell-based
Method: as §1, §2

[5] = no FasL, concentration near AC50 or more than 10-fold greater

solubility at 24 h [1]: 99.8 µM (≈ 36.6 µg/mL)
caspase 8 activity, compound alone [2, 5]: no significant effect
AC50 ([3]; read-out: in vivo AC50): 299 ± 42 nM
Emax ([3]; rat, normalized to DMSO, read-out: in vivo PK activity (maximum activation)): 183 ± 4%
caspase 3 and 7 activity, compound alone [4, 5]: no significant effect
Structure (SMILES): Cn1c2cc([S+](C)[O-])ccc2c2cnn(Cc3cccc(N)c3)c(=O)c21 (stereo not shown) [Compound 2]
cell viability (661W cells; 200 nM): significantly improved
cell viability (661W cells; 2 μM): trended towards improved cell viability
cell viability, compound alone (661W cells; [5]): no significant effect
caspase 8 activation ([2]; in presence of 500 ng/mL FasL, all concentrations tested, 8 h, versus DMSO): significantly decreased
caspase 3 and 7 activation ([4]; in presence of 500 ng/mL FasL, highest concentration tested, 8 h, versus DMSO): significantly decreased

Source: PMC10222839, “Development of Novel Small-Molecule Activators of Pyruvate Kinase Muscle Isozyme 2, PKM2, to Reduce Photoreceptor Apoptosis” (Pharmaceuticals, 2023)
